Experimental data reported in ChEMBL document CHEMBL1156790, “Synthesis and structure-activity relationships of antitubercular 2-nitroimidazooxazines bearing heterocyclic side chains” (J Med Chem, 2010).
Converted amounts (≈) assume the structure as drawn.

What was measured:
Vero = assay: Cytotoxicity against african green monkey Vero cells after 72 hrs by tetrazolium dye assay; format: cell-based; details: Chlorocebus sabaeus
[1] = system: Mycobacterium tuberculosis; assay: Antimycobacterial activity against Mycobacterium tuberculosis H37Rv after 16 to 24 hrs by microplate alamar blue assay; format: functional
[2] = system: Mycobacterium tuberculosis; assay: Antimycobacterial activity against Mycobacterium tuberculosis H37Rv expressing pFCA-luxAB after 10 days by luminescence-based low-oxygen recovery assay; format: functional; details: 240 h
[3] = Solubility in water at pH 7 at 20 degC; format: physicochemical
[4] = Thermodynamic solubility in water at pH 7.4 at; format: physicochemical; details: water

Compound	IC50 (Vero) [µM]	MIC [1] [µM]	MIC [2] [µM]	solubility [3] [µg/mL]	solubility thermodynamic [4] [µg/mL]
O=[N+]([O-])c1cn2c(n1)OC[C@@H](OCc1cnn(-c3ccccc3)n1)C2	> 128	0.25 (≈ 0.0856 µg/mL)	2.2 (≈ 0.753 µg/mL)	–	–
Cn1nc(-c2ccc(C(F)(F)F)cc2)cc1CO[C@@H]1COc2nc([N+](=O)[O-])cn2C1	> 128	0.06 (≈ 0.0254 µg/mL)	4.1 (≈ 1.74 µg/mL)	–	–
Cn1nc(-c2ccc(F)cc2)cc1CO[C@@H]1COc2nc([N+](=O)[O-])cn2C1	> 128	0.36 (≈ 0.134 µg/mL)	4 (≈ 1.49 µg/mL)	–	–
O=[N+]([O-])c1cn2c(n1)OC[C@@H](OCc1ccc(-c3cncc(F)c3)s1)C2	> 128	0.87 (≈ 0.327 µg/mL)	2.3 (≈ 0.866 µg/mL)	–	–
Cn1c(CO[C@@H]2COc3nc([N+](=O)[O-])cn3C2)cnc1-c1ccc(C#N)cc1	> 128	2.8 (≈ 1.07 µg/mL)	> 32	–	–
O=[N+]([O-])c1cn2c(n1)OC[C@@H](OCc1cnn(-c3ccc(F)cc3)c1)C2	> 128	0.8 (≈ 0.287 µg/mL)	3.9 (≈ 1.4 µg/mL)	–	–
O=[N+]([O-])c1cn2c(n1)OC[C@@H](OCc1ccc(-c3ccc(OC(F)F)cc3)s1)C2	> 128	0.86 (≈ 0.364 µg/mL)	0.58 (≈ 0.246 µg/mL)	–	–
O=[N+]([O-])c1cn2c(n1)OC[C@@H](OCc1ccc(-c3ccc(C(F)(F)F)cc3)s1)C2	> 128	0.16 (≈ 0.0681 µg/mL)	1 (≈ 0.425 µg/mL)	0.7 (≈ 1.65 µM)	–
O=[N+]([O-])c1cn2c(n1)OC[C@@H](OCc1ccn(-c3ccc(C(F)(F)F)cc3)n1)C2	> 128	0.045 (≈ 0.0184 µg/mL)	1 (≈ 0.409 µg/mL)	5.4 (≈ 13.2 µM)	–
O=[N+]([O-])c1cn2c(n1)OC[C@@H](OCc1nnn(-c3ccc(F)cc3)n1)C2	> 128	0.29 (≈ 0.105 µg/mL)	3.4 (≈ 1.23 µg/mL)	–	–
N#Cc1ccc(-c2cccc(CO[C@@H]3COc4nc([N+](=O)[O-])cn4C3)c2)cc1	> 128	–	4.8 (≈ 1.81 µg/mL)	–	–
COc1ccc(-c2nc(CO[C@@H]3COc4nc([N+](=O)[O-])cn4C3)cs2)cc1F	> 128	0.2 (≈ 0.0813 µg/mL)	1.7 (≈ 0.691 µg/mL)	–	–
COc1ccc(-c2ncc(CO[C@@H]3COc4nc([N+](=O)[O-])cn4C3)n2C)cc1F	> 128	1.4 (≈ 0.565 µg/mL)	> 32	–	–
O=[N+]([O-])c1cn2c(n1)OC[C@@H](OCc1cccc(-c3ccc(F)cc3)c1)C2	> 128	–	3.8 (≈ 1.4 µg/mL)	1.8 (≈ 4.87 µM)	–
O=[N+]([O-])c1cn2c(n1)OC[C@@H](OCc1ccc(-c3ccc(OC(F)(F)F)cc3)cc1)C2	> 128	–	1.3 (≈ 0.566 µg/mL)	–	< 0.5
O=[N+]([O-])c1cn2c(n1)OC[C@@H](OCc1nnn(-c3ccccc3)n1)C2	> 128	1.2 (≈ 0.412 µg/mL)	5.7 (≈ 1.96 µg/mL)	–	–
O=[N+]([O-])c1cn2c(n1)OC[C@@H](OCc1cccc(-c3ccc(OC(F)(F)F)cc3)c1)C2	> 128	–	2.2 (≈ 0.958 µg/mL)	–	–
N#Cc1ccc(-c2nc(CO[C@@H]3COc4nc([N+](=O)[O-])cn4C3)cs2)cc1	> 128	0.67 (≈ 0.257 µg/mL)	3.2 (≈ 1.23 µg/mL)	–	–
COc1ccc(-c2cccc(CO[C@@H]3COc4nc([N+](=O)[O-])cn4C3)c2)cc1F	> 128	–	2.2 (≈ 0.879 µg/mL)	–	–
O=[N+]([O-])c1cn2c(n1)OC[C@@H](OCc1ccc(-c3ccc(OC(F)(F)F)cc3)s1)C2	> 128	0.85 (≈ 0.375 µg/mL)	2.6 (≈ 1.15 µg/mL)	–	–
COc1ccc(-c2ccc(CO[C@@H]3COc4nc([N+](=O)[O-])cn4C3)s2)cn1	> 128	0.22 (≈ 0.0854 µg/mL)	4.5 (≈ 1.75 µg/mL)	2.2 (≈ 5.66 µM)	–
COc1ccc(-c2nc(CO[C@@H]3COc4nc([N+](=O)[O-])cn4C3)cs2)cn1	> 128	1.4 (≈ 0.545 µg/mL)	4.5 (≈ 1.75 µg/mL)	–	–
O=[N+]([O-])c1cn2c(n1)OC[C@@H](OCc1csc(-c3ccc(C(F)(F)F)cc3)n1)C2	> 128	1.4 (≈ 0.597 µg/mL)	3 (≈ 1.28 µg/mL)	2.8 (≈ 6.57 µM)	–
COc1ccc(-n2cc(CO[C@@H]3COc4nc([N+](=O)[O-])cn4C3)nn2)cc1F	> 128	0.86 (≈ 0.336 µg/mL)	8.7 (≈ 3.4 µg/mL)	–	–
O=[N+]([O-])c1cn2c(n1)OC[C@@H](OCc1cc(-c3ccc(F)cc3)no1)C2	> 128	1.5 (≈ 0.54 µg/mL)	1.9 (≈ 0.685 µg/mL)	–	–
Cn1c(CO[C@@H]2COc3nc([N+](=O)[O-])cn3C2)cnc1-c1ccc(F)cc1	> 128	1.9 (≈ 0.709 µg/mL)	31 (≈ 11.6 µg/mL)	–	–
Cn1c(CO[C@@H]2COc3nc([N+](=O)[O-])cn3C2)cnc1-c1ccc(OC(F)(F)F)cc1	> 128	1.1 (≈ 0.483 µg/mL)	7.4 (≈ 3.25 µg/mL)	–	–
O=[N+]([O-])c1cn2c(n1)OC[C@@H](OCc1cccc(-c3ccc(C(F)(F)F)cc3)c1)C2	> 128	–	2.9 (≈ 1.22 µg/mL)	2.8 (≈ 6.68 µM)	–
